Like-named read-outs stand apart in the source and are kept apart here.
How the values were obtained:
[1] = system: UM-UC-9 engineered cells; assay: Cell proliferation / short-term viability assay, CellTiter-Glo 144 h; format: cell-based, human; conditions: read-out: CTGlo 144 h UMUC9.5, G150
Outline: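 Viability read by CellTiter-Glo 2.0 luminescence at day 7 versus DMSO-vehicle wells and a T0 plate measured on day 0. Cells: UM-UC-9 engineered assay-ready stocks, 500 cells/well in high-glucose DMEM with 10% FBS, 37° C, 5% CO2.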

[2] = biological target: T1, His6-TEV-PPARγ-(234-505) (Homo sapiens, UniProt P37231); assay: TR-FRET Assay to Measure Co-R Peptide Recruitment to PPARγ; format: biochemical; conditions: Co-R peptide (SMRT-ID2) recruitment; top final concentration 20 μM; read-out: TR-FRET i-Ag; AC50
T1 construct: The His6-TEV-PPARγ-(234-505) protein for assay was expressed and purified; TEV cleavage site (N); made in house
T1 sequence (P37231 234-505): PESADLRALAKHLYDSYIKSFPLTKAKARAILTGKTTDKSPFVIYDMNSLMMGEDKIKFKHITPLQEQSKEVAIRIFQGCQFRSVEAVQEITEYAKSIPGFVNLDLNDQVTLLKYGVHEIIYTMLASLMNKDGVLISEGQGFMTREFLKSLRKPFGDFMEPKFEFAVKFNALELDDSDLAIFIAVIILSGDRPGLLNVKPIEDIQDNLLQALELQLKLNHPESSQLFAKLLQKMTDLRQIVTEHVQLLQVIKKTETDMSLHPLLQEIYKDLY
Outline: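 Corepressor recruitment is measured by adding terbium-labeled anti-His antibody and FITC SMRT-ID2 peptide, at 5 and 200 nM final, after a 20-minute room-temperature protein–compound incubation. After one further hour, signal is converted to percent response between DMSO and 500 nM T0070907 wells.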

Compound | IC50 ([1]; Homo sapiens, UM-UC-9, 144 h) | AC50 [2] | IC50 [1]
CCOC1(C(F)(F)F)CCC(NC(=O)[C@@H]2C[C@H]3CC[C@@H](C2)N3C(=O)c2cc(-c3cc(OC)ncc3F)[nH]n2)CC1 (single isomer, unassigned) [Example 303-B] | 82 nM | 29.8 nM | –
COc1cc(-c2cc(C(=O)N3CC[C@H](C(=O)N[C@H]4CC[C@@](OCCN(C)C)(C(F)(F)F)CC4)CC34CC4)n[nH]2)c(F)cn1 [Example 329-A, (S)—N-((1r,4S)-4-(2-(dimethylamino)ethoxy)-4-(trifluoromethyl)cyclohexyl)-4-(5-(5-fluoro-2-methoxypyridin-4-yl)-1H-pyrazole-3-carbonyl)-4-azaspiro[2.5]octane-7-carboxamide] | 24.3 nM | 7.5 nM | –
COc1cc(-c2cc(C(=O)N3CCC(C(=O)NCC45CCC(O)(CC4)C5)CC34CC4)n[nH]2)c(F)cn1 (single isomer, unassigned) [Example 333-B] | – | 6.7 nM | 33.2 nM
COc1cc(-c2cc(C(=O)N3CCC(C(=O)NC4CCCn5ccnc54)CC34CC4)n[nH]2)c(F)cn1 (mixture of isomers) [Example 479, (S)-4-(5-(5-fluoro-2-methoxypyridin-4-yl)-1H-pyrazole-3-carbonyl)-N—((R)-5,6,7,8-tetrahydroimidazo[1,2-a]pyridin-8-yl)-4-azaspiro[2.5]octane-7-carboxamide and (S)-4-(5-(5-fluoro-2-methoxypyridin-4-yl)-1H-pyrazole-3-carbonyl)-N—((S)-5,6,7,8-tetrahydroimidazo[1,2-a]pyridin-8-yl)-4-azaspiro[2.5]octane-7-carboxamide] | – | 132 nM | 1470 nM
COc1cc(-c2cc(C(=O)N3CC[C@H](C(=O)NCc4nc(C)nn4C(C)C)CC34CC4)n[nH]2)c(F)cn1 [Example 473, (S)-4-(5-(5-fluoro-2-methoxypyridin-4-yl)-1H-pyrazole-3-carbonyl)-N-((1-isopropyl-3-methyl-1H-1,2,4-triazol-5-yl)methyl)-4-azaspiro[2.5]octane-7-carboxamide] | 3390 nM | 443 nM | –
COc1cc(-c2cc(C(=O)N3CCC(C(=O)NC4CCOc5ccc(F)cc54)CC3)n[nH]2)c(Cl)cn1 (racemic) [Example 195, 1-(5-(5-chloro-2-methoxypyridin-4-yl)-1H-pyrazole-3-carbonyl)-N-(6-fluorochroman-4-yl)piperidine-4-carboxamide] | 348 nM | 212 nM | –
COc1cc(-c2cc(C(=O)N3CC[C@H](C(=O)NC4CCN(CC5(O)COC5)C4)CC34CC4)n[nH]2)c(F)cn1 (single isomer, unassigned) [Example 454-A] | – | 88.7 nM | 1790 nM
COc1cc(-c2cc(C(=O)N3CC[C@H](C(=O)NCC4CCNCC4(F)F)CC34CC4)n[nH]2)c(F)cn1 (single isomer, unassigned) [Example 511-B] | – | 18.5 nM | 78.4 nM
COc1cc(-c2cc(C(=O)N3[C@@H]4CC[C@H]3C[C@H](C(=O)NC3CCC(O)(C(F)(F)C(F)(F)F)CC3)C4)n[nH]2)c(F)cn1 (mixture of isomers) [Example 301, (1R,3s,5S)-8-(5-(5-fluoro-2-methoxypyridin-, 1-yl)-1H-pyrazole-3-carbonyl)-N-(4-hydroxy-4-(perfluoroethyl)cyclohexyl)-8-azabicyclo[3.2.1]octane-3-carboxamide] | 74.8 nM | 15.9 nM | –
Cc1cc(-c2cc(C(=O)N3CCC(C(=O)NC4CCC(O)(C(F)(F)F)CC4)CC34CC4)n[nH]2)ncn1 (single isomer, unassigned) [Example 339-B] | – | 6.9 nM | 19.5 nM
COc1cc(-c2cc(C(=O)N3CC[C@H](C(=O)N[C@H]4CN(c5ccc(C)nc5)C[C@@H]4F)CC34CC4)n[nH]2)c(F)cn1 [Example 427, (S)—N-((3S,4S)-4-fluoro-1-(6-methylpyridin-3-yl)pyrrolidin-3-yl)-4-(5-(5-fluoro-2-methoxypyridin-4-yl)-1H-pyrazole-3-carbonyl)-4-azaspiro[2.5]octane-7-carboxamide] | 4.2 nM | 10.5 nM | –
COc1cc(-c2cc(C(=O)N3CCC(C(=O)NC4CCC5(CCO5)CC4)CC3)n[nH]2)c(F)cn1 (centres unmarked) [Example 276, 1-(5-(5-fluoro-2-methoxypyridin-4-yl)-1H-pyrazole-3-carbonyl)-N-(1-oxaspiro[3.5]nonan-7-yl)piperidine-4-carboxamide] | > 4000 nM | 813 nM | –
COc1cc(-c2cc(C(=O)N3CCC(C(=O)NCC4COC(C)(C)O4)CC3)n[nH]2)c(Cl)cn1 (racemic) [Example 185, 1-(5-(5-chloro-2-methoxypyridin-4-yl)-1H-pyrazole-3-carbonyl)-N-((2,2-dimethyl-1,3-dioxolan-4-yl)methyl)piperidine-4-carboxamide] | 1550 nM | 735 nM | –
COc1cc(-c2cc(C(=O)N3CC[C@H](C(=O)NCC45CC(C4)N(CC(C)(C)F)C5)CC34CC4)n[nH]2)c(F)cn1 [Example 440, (S)-4-(5-(5-fluoro-2-methoxypyridin-4-yl)-1H-pyrazole-3-carbonyl)-N-((2-(2-fluoro-2-methylpropyl)-2-azabicyclo[2.1.1]hexan-4-yl)methyl)-4-azaspiro[2.5]octane-7-carboxamide] | 927 nM | 410 nM | –
CO[C@]1(C(F)(F)F)CC[C@H](NC(=O)[C@H]2CCN(C(=O)c3cc(-c4cc(C)ncc4F)[nH]n3)C3(CC3)C2)CC1 (single isomer, unassigned) [Example 293-D] | 86 nM | 17 nM | –
CO[C@]1(C(F)(F)F)CC[C@H](NC(=O)[C@@H]2CCN(C(=O)c3cc(-c4cc(C)ncn4)[nH]n3)C3(CC3)C2)CC1 (single isomer, unassigned) [Example 309-D] | 3680 nM | 1320 nM | –
COc1cc(-c2cc(C(=O)N3CCC(C(=O)N[C@H]4CC[C@](C)(O)CC4)CC3)n[nH]2)c(Cl)cn1 [Example 198, 1-(5-(5-chloro-2-methoxypyridin-4-yl)-1H-pyrazole-3-carbonyl)-N-((1r,4r)-4-hydroxy-4-methylcyclohexyl)piperidine-4-carboxamide] | 4160 nM | 917 nM | –
COc1cc(-c2cc(C(=O)N3CCC(C(=O)NCc4ccc5c(ccn5C)c4)CC3)n[nH]2)c(Cl)cn1 [Example 206, 1-(5-(5-chloro-2-methoxypyridin-4-yl)-1H-pyrazole-3-carbonyl)-N-((1-methyl-1H-indol-5-yl)methyl)piperidine-4-carboxamide] | 86.6 nM | 13.8 nM | –
COc1cc(-c2cc(C(=O)N3CCC(C(=O)NC4CCN(c5ccc(F)cc5)C4)CC3)n[nH]2)c(Cl)cn1 (racemic) [Example 253, 1-(5-(5-chloro-2-methoxypyridin-4-yl)-1H-pyrazole-3-carbonyl)-N-(1-(4-fluorophenyl)pyrrolidin-3-yl)piperidine-4-carboxamide] | 387 nM | 51 nM | –
COc1cc(-c2cc(C(=O)N3CC[C@H](C(=O)Nc4cnn5c4CC(O)CC5)CC34CC4)n[nH]2)c(F)cn1 (single isomer, unassigned) [Example 514-B] | – | 59.6 nM | 4310 nM
COc1cc(-c2cc(C(=O)N3CC[C@H](C(=O)NC4CC5CCC(C4)O5)CC34CC4)n[nH]2)c(F)cn1 (stereo partly drawn) [Example 354, (7S)—N-(8-oxabicyclo[3.2.1]octan-3-yl)-4-(5-(5-fluoro-2-methoxypyridin-4-yl)-1H-pyrazole-3-carbonyl)-4-azaspiro[2.5]octane-7-carboxamide] | 28.6 nM | 24.1 nM | –
COc1cc(-c2cc(C(=O)N3CCC(C(=O)NCc4cccc(F)c4F)CC3)n[nH]2)c(Cl)cn1 [Example 155, 1-(5-(5-chloro-2-methoxypyridin-4-yl)-1H-pyrazole-3-carbonyl)-N-(2,3-difluorobenzyl)piperidine-4-carboxamide] | 122 nM | 103 nM | –
(1R,3S,5S)-8-[5-(5-fluoro-2-methoxypyridin-4-yl)-1H-pyrazole-3-carbonyl]-N-[(1r,4r)-4-(2-methoxyethoxy)-4-(trifluoromethyl)cyclohexyl]-8-azabicyclo[3.2.1]octane-3-carboxamide and (1R,3S,5S)-8-[5-(5-fluoro-2-methoxypyridin-4-yl)-1H-pyrazole-3-carbonyl]-N-[(1s,4s)-4-(2-methoxyethoxy)-4-(trifluoromethyl)cyclohexyl]-8-azabicyclo[3.2.1]octane-3-carboxamide [Example 304] | – | 44.4 nM | 201 nM
COc1cc(-c2cc(C(=O)N3CCC(C(=O)NCc4cccc(Cl)c4)CC3C)n[nH]2)c(Cl)cn1 (mixture of isomers) [Example 172, 1-(5-(5-chloro-2-methoxypyridin-4-yl)-1H-pyrazole-3-carbonyl)-N-(3-chlorobenzyl)-2-methylpiperidine-4-carboxamide] | 163 nM | 16.5 nM | –
CO[C@]1(C(F)(F)F)CC[C@@H](NC(=O)[C@@H]2CCN(C(=O)c3cc(-c4cc(C)ncn4)[nH]n3)C3(CC3)C2)CC1 (single isomer, unassigned) [Example 309-C] | 6200 nM | 720 nM | –
